Results as given in PMC8308911, “Pharmacokinetic Study of Anti-osteoarthritic Compounds of a Standardized Fraction from Sphaeralcea Angustifolia” (Pharmaceuticals, 2021).
Where two headings read alike, the source gives them in different places.

Assays:
[1] = Stability of the active compounds in mouse plasma under handling and storage conditions; conditions: mice plasma
Experimental: The investigation presented here expected manipulation conditions during all of the sample storage and process periods, which included the stability data from the freeze/defrost, bench-top, autosampler, and long-term stability tests. For all stability studies, fresh QC samples were evaluated by using a freshly prepared standard curve for the measurements. The analyzed conditions were 0, 8, and 24 h at room temperature, 8 h at 4 °C, and 30 days at −70 °C. The concentrations obtained from all of the stability studies were compared with the fresh QC samples, and the percentage of concentration deviation was calculated.

[2] = Pharmacokinetics after single intravenous administration of the SaTSS standardized fraction (plasma, HPLC, PKSolver); format: in vivo, ICR mice; conditions: for AUC(0-t): read-out: AUC0-60 (converted); for Vd: read-out: Vss
Experimental: Analyses of HPLC were carried out in a Waters system (2695 Separation module) coupled to a diode array detector (2996) with a 190–600-nm detection range and operated by the Manager Millennium software system (Empower 1; Waters Corporation, Mexico City, Mexico). Separations were performed in a Spherisorb-ODS RP-18 column (250 × 4.6 mm, 5 µm; Waters Corporation, Mexico) employing a constant temperature of 25 °C during the analyses. Samples (20 µL) were eluted at a 1.0 mL/min flow rate with a gradient of mobile phases of (A) high-purity H2O with trifluoroacetic acid to 0.5% v/v (TFA, Sigma-Aldrich, Mexico City, Mexico) and (B) high purity CH3CN, and compounds were detected by monitoring absorbance for tomentin and scopoletin at λ = 343 nm and for sphaeralcic acid at λ = 357 nm. The mobile phase was started with water (100%) and was maintained for 1 min, then solvent B was gradually incorporated at 5% (at 2 min), at 30% (at 4 min), and at 50% (at 16 min). During the next 4 min, solvent B was increased to 100%, and this proportion was maintained for 5 min. Finally, the following 3 min were utilized to return the mobile phase to the initial condition. […] Identification of scopoletin and tomentin as well as sphaeralcic acid was performed by comparing their retention times (tomentin—11.288 min, scopoletin—11.349 min, coumarin mixure—11.457 min, and sphaeralcic acid—23.319 min) and absorbance spectra.
The mice were previously anesthetized with sodium pentobarbital (PiSA Agropecuaria), then retro-orbital sinus blood was obtained using heparinized capillaries and distributed to heparinized tubes, and tubes were centrifuged at 3500 g for 7 min. The plasma obtained was transferred to new tubes and stored at −4 °C until use.
Plasma samples were extracted with CH3CN and TFA (w/v) 20% (1:1), then vials were centrifuged at 14,000 g for 10 min and the supernatant was transferred to another vial and left to dry at room temperature. The precipitate was resuspended with 1 mL of high-purity methanol (Merk, México) and filtered through Teflon membrane (13 mm, 0.45 µm, Life Science). Each filtered sample was injected into the HPLC equipment, and the concentrations of tomentin and scopoletin at λ = 343 nm and of sphaeralcic acid at λ = 357 nm were obtained by comparison with pre-built calibration curves.
To evaluate the suitability of the assay for the pharmacokinetic studies, 400 mg/kg of the active SaTSS fraction standardized in a mixture of tomentin and scopoletin (7.1 mg/400 mg), and sphaeralcic acid (34.6 mg/400 mg) was administered orally or intravenously to the mice. The dose of SaTSS fraction was chosen based on previous research of active compounds, as the median efective dose of each compound and detectable concentrations of them in the fraction. For oral pharmacokinetics, ten animals were used in each group at different times (0, 1.3, 3.3, 5, 10, 20, 40, 60, 80, 120, and 240 min). For intravenous pharmacokinetics, three animals were used in each group at different times (2, 4, 6, 8, 10, 15, 20, 30, and 60 min) Subsequently, the mice were anesthetized, retro-orbital sinus blood was obtained, plasma samples were extracted with CH3CN and TFA (w/v) 20% (1:1), and the extracts were analyzed by HPLC for coumarin (tomentin and scopoletin) and sphaeralcic acid quantification. Pharmacokinetic calculations were performed using the observed data. All data were subsequently processed using the PKSolver add-in program for Microsoft Excel written in Visual Basic for Applications. All values obtained were expressed in mean ± Standard Deviation (SD). For the pharmacokinetic assay, the selection was made either from a one-compartment or from a two-compartment model, with the use of both the Akaike Information Criterion (AIC) and the Schwarz Criterion (SC). […]

[3] = Autosampler (4 °C, 8 h), nominal 2.5 μg/mL
[4] = Autosampler (4 °C, 8 h), nominal 5 μg/mL
[5] = Autosampler (4 °C, 8 h), nominal 10 μg/mL
[6] = Long-term (−70 °C, 1 month), nominal 2.5 μg/mL
[7] = Long-term (−70 °C, 1 month), nominal 5 μg/mL
[8] = Long-term (−70 °C, 1 month), nominal 10 μg/mL
[9] = room temperature, 0 h, nominal 2.5 μg/mL
[10] = room temperature, 0 h, nominal 5 μg/mL
[11] = room temperature, 0 h, nominal 10 μg/mL
[12] = room temperature, 8 h, nominal 2.5 μg/mL
[13] = room temperature, 8 h, nominal 5 μg/mL
[14] = room temperature, 8 h, nominal 10 μg/mL
[15] = room temperature, 24 h, nominal 2.5 μg/mL
[16] = room temperature, 24 h, nominal 5 μg/mL
[17] = room temperature, 24 h, nominal 10 μg/mL
[18] = ICR, mouse, plasma, iv, 400 mg/kg, intravenous 400 mg/kg SaTES fraction, One-Compartment Model
[19] = ICR, mouse, plasma, iv, 400 mg/kg, intravenous 400 mg/kg SaTES fraction, Two-Compartment Model
[20] = intravenous 400 mg/kg SaTES fraction, One-Compartment Model
[21] = intravenous 400 mg/kg SaTES fraction, Two-Compartment Model
[22] = intravenous 400 mg/kg SaTES fraction, Two-Compartment Model, 400 mg/kg
[23] = intravenous 400 mg/kg SaTES fraction, Two-Compartment Model, listed as Sphaeralcic Acid, 400 mg/kg
[24] = intravenous 400 mg/kg SaTES fraction, Two-Compartment Model, listed as sphaeralcic acid, 400 mg/kg

COc1c(C)cc2c(C(C)C)cc(C(=O)O)c(O)c2c1O [Sphaeralcic acid, sphaeralcic acid]
Accuracy Bias [1, 3]: −3.89%
Observed Concentration [1, 3]: 2.40 ± 0.04 µg/mL
Accuracy Bias [1, 4]: −1.69%
Observed Concentration [1, 4]: 4.92 ± 0.08 µg/mL
Accuracy Bias [1, 5]: −3.34%
Observed Concentration [1, 5]: 9.67 ± 0.12 µg/mL
Accuracy Bias [1, 6]: −4.82%
Observed Concentration [1, 6]: 2.38 ± 0.08 µg/mL
Accuracy Bias [1, 7]: −2.61%
Observed Concentration [1, 7]: 4.87 ± 0.10 µg/mL
Accuracy Bias [1, 8]: −3.50%
Observed Concentration [1, 8]: 9.65 ± 0.08 µg/mL
Accuracy Bias [1, 9]: −0.60%
Observed Concentration [1, 9]: 2.48 ± 0.03 µg/mL
Accuracy Bias [1, 10]: 0.17%
Observed Concentration [1, 10]: 5.01 ± 0.06 µg/mL
Accuracy Bias [1, 11]: −0.49%
Observed Concentration [1, 11]: 9.95 ± 0.11 µg/mL
Accuracy Bias [1, 12]: −9.98%
Observed Concentration [1, 12]: 2.25 ± 0.13 µg/mL
Accuracy Bias [1, 13]: −8.10%
Observed Concentration [1, 13]: 4.59 ± 0.06 µg/mL
Accuracy Bias [1, 14]: −6.48%
Observed Concentration [1, 14]: 9.35 ± 0.11 µg/mL
Accuracy Bias [1, 15]: −9.03%
Observed Concentration [1, 15]: 2.27 ± 0.11 µg/mL
Accuracy Bias [1, 16]: −8.73%
Observed Concentration [1, 16]: 4.56 ± 0.10 µg/mL
Accuracy Bias [1, 17]: −7.37%
Observed Concentration [1, 17]: 9.26 ± 0.07 µg/mL
AUC(0-inf) [2, 18]: 21300 ng·h/mL
clearance [2, 18]: 27 mL/min/kg
AUC(0-t) [2, 18]: 18300 ng·h/mL
C0 ([2]; ICR, mouse, plasma, iv, 400 mg/kg, intravenous 400 mg/kg SaTES fraction, One-Compartment Model, read-out: C0): 41700 ng/mL
MRT ([2]; ICR, mouse, plasma, iv, 400 mg/kg, intravenous 400 mg/kg SaTES fraction, One-Compartment Model, read-out: MRT (converted)): 30.7 min
Vd [2, 18]: 0.828 L/kg
half-life ([2]; ICR, mouse, plasma, iv, 400 mg/kg, intravenous 400 mg/kg SaTES fraction, One-Compartment Model, read-out: t1/2): 21.2 min
AUC(0-inf) [2, 19]: 20400 ng·h/mL
clearance [2, 19]: 28 mL/min/kg
AUC(0-t) [2, 19]: 17700 ng·h/mL
C0 ([2]; ICR, mouse, plasma, iv, 400 mg/kg, intravenous 400 mg/kg SaTES fraction, Two-Compartment Model, read-out: C0): 58500 ng/mL
MRT ([2]; ICR, mouse, plasma, iv, 400 mg/kg, intravenous 400 mg/kg SaTES fraction, Two-Compartment Model, read-out: MRT (converted)): 29.3 min
Vd [2, 19]: 0.826 L/kg
half-life ([2]; ICR, mouse, plasma, iv, 400 mg/kg, intravenous 400 mg/kg SaTES fraction, Two-Compartment Model, read-out: t1/2β): 20.6 min
concentration at 2 min ([2]; ICR, mouse, plasma, intravenous single dose 400 mg/kg SaTES fraction, 2.0 min, n = 3): 40880 ± 210 ng/mL
concentration at 4 min ([2]; ICR, mouse, plasma, intravenous single dose 400 mg/kg SaTES fraction, 4.0 min, n = 3): 36280 ± 110 ng/mL
concentration at 6 min ([2]; ICR, mouse, plasma, intravenous single dose 400 mg/kg SaTES fraction, 6.0 min, n = 3): 33900 ± 240 ng/mL
concentration at 8 min ([2]; ICR, mouse, plasma, intravenous single dose 400 mg/kg SaTES fraction, 8.0 min, n = 3): 31800 ± 750 ng/mL
concentration at 10 min ([2]; ICR, mouse, plasma, intravenous single dose 400 mg/kg SaTES fraction, 10 min, n = 3): 28700 ± 650 ng/mL
concentration at 15 min ([2]; ICR, mouse, plasma, intravenous single dose 400 mg/kg SaTES fraction, 15 min, n = 3): 24400 ± 330 ng/mL
concentration at 20 min ([2]; ICR, mouse, plasma, intravenous single dose 400 mg/kg SaTES fraction, 20 min, n = 3): 21200 ± 510 ng/mL
concentration at 30 min ([2]; ICR, mouse, plasma, intravenous single dose 400 mg/kg SaTES fraction, 30 min, n = 3): 15800 ± 570 ng/mL
concentration at 60 min ([2]; ICR, mouse, plasma, intravenous single dose 400 mg/kg SaTES fraction, 60 min, n = 3): 3810 ± 90 ng/mL
AUMC [2, 20]: 39,202.118 µg/mL*min^2
V [2, 20]: 0.828 (mg)/(µg/mL)
k10 [2, 20]: 0.032 min⁻¹
AUC0-inf ∞ ([2]; intravenous 400 mg/kg SaTES fraction, One-Compartment Model, 400 mg/kg): 1278.978 µg·min/mL
k10 [2, 21]: 0.048 min⁻¹
k12 [2, 21]: 0.249 min⁻¹
k21 [2, 21]: 0.624 min⁻¹
t1/2α [2, 21]: 0.781 min
α [2, 21]: 0.88 min⁻¹
β [2, 21]: 0.034 min⁻¹
A (plasma concentration, central compartment) [2, 22]: 18.03 µg/mL
B (plasma concentration, peripheral compartment) [2, 22]: 40.46 µg/mL
A (plasma concentration, central compartment) [2, 23]: 18.027 µg/mL
AUMC [2, 23]: 35,880.304 µg/mL*min^2
B (plasma concentration, peripheral compartment) [2, 23]: 40.461 µg/mL
C0 [2, 23]: 58489 ng/mL
MRT [2, 23]: 29.294 min
V [2, 23]: 0.591 (mg)/(µg/mL)
AUMC [2, 24]: 35,880.30 µg/mL*min^2
V [2, 24]: 0.59 (mg)/(µg/mL)
